# Target: human PHD2184-418 (Homo sapiens (Human), UniProt Q9GZT9)
# Test: PHD2 inhibitory test (fluorescence polarization, binding between PHD2 and HIF-1α)
# Conditions: human PHD2184-418, FITC-labeled HIF-1α556-574, 2 μM 2-oxoglutarate, 37° C. 60 minutes
# In short: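 N-His-tagged human PHD2 (residues 184–418, E. coli-expressed) was preincubated with compound, then FITC-Ahx-HIF-1α556-574 peptide was added in pH 7.4 HEPES buffer with 10 μM MnCl2 and 2 μM 2-oxoglutarate. After 60 min at 37 °C, fluorescence polarization (ex 470/em 530 nm) was read. Inhibition was calculated against compound-free wells.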
# Chain of human PHD2184-418 (Q9GZT9 184-418): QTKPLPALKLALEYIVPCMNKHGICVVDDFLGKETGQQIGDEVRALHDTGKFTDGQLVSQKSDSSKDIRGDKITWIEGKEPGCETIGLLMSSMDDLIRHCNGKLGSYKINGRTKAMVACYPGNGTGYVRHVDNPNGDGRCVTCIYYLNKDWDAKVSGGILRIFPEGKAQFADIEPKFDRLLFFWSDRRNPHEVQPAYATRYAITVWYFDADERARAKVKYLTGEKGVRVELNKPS
row,Compound,IC50 [nM]
1,"Cn1c(C(=O)O)cnc1CN1CC[C@H](n2c(=O)n(-c3ccc(OC(F)(F)F)cc3)c3cccnc32)C1 [Example 62, (S)-1-Methyl-2-((3-(2-oxo-1-(4-(trifluoromethoxy)phenyl)-1,2-dihydro-3H-imidazo[4,5-b]pyridin-3-yl)pyrrolidin-1-yl)methyl)-1H-imidazole-5-carboxylic acid]",1850
2,"Cn1c(C(=O)O)cnc1CN1CC[C@H](n2c(=O)n(-c3cnc4ccccc4c3)c3cccnc32)C1 [Example 66, (S)-1-Methyl-2-((3-(2-oxo-1-(quinolin-3-yl)-1,2-dihydro-3H-imidazo[4,5-b]pyridin-3-yl)pyrrolidin-1-yl)methyl)-1H-imidazole-5-carboxylic acid]",1170
3,"Cn1c(C(=O)O)cnc1CN1CC[C@H](n2c(=O)n(-c3ccc(N4CCOCC4)cc3)c3cccnc32)C1 [Example 67, (S)-1-Methyl-2-((3-(1-(4-morpholinophenyl)-2-oxo-1,2-dihydro-3H-imidazo[4,5-b]pyridin-3-yl)pyrrolidin-1-yl)methyl)-1H-imidazole-5-carboxylic acid]",520
4,"Cn1c(C(=O)O)cnc1CN1CC[C@H](n2c(=O)n(C3CCC(c4ccccc4)CC3)c3cccnc32)C1 (stereo partly drawn) [Example 68, (S)-1-Methyl-2-((3-(2-oxo-1-(4-phenylcyclohexyl)-1,2-dihydro-3H-imidazo[4,5-b]pyridin-3-yl)pyrrolidin-1-yl)methyl)-1H-imidazole-5-carboxylic acid]",8150
5,"C=Cc1ccc(-n2c(=O)n([C@H]3CCN(Cc4ncc(C(=O)O)n4C)C3)c3ncccc32)cc1 [Example 69, (S)-1-Methyl-2-((3-(2-oxo-1-(4-vinylphenyl)-1,2-dihydro-3H-imidazo[4,5-b]pyridin-3-yl)pyrrolidin-1-yl)methyl)-1H-imidazole-5-carboxylic acid]",500
6,"Cn1c(C(=O)O)cnc1CN1CC[C@H](n2c(=O)n(-c3ccsc3)c3cccnc32)C1 [Example 70, (S)-1-Methyl-2-((3-(2-oxo-1-(thiophen-3-yl)-1,2-dihydro-3H-imidazo[4,5-b]pyridin-3-yl)pyrrolidin-1-yl)methyl)-1H-imidazole-5-carboxylic acid]",1450
7,"Cn1c(C(=O)O)cnc1CN1CC[C@H](n2c(=O)n(Cc3ccccc3)c3cccnc32)C1 [Example 71, (S)-2-((3-(1-Benzyl-2-oxo-1,2-dihydro-3H-imidazo[4,5-b]pyridin-3-yl)pyrrolidin-1-yl)methyl)-1-methyl-1H-imidazole-5-carboxylic acid]",13900

# More lines, now with the values ahead:
row,IC50 [nM],Compound
1,1920,"Cn1c(C(=O)O)cnc1CN1CC[C@H](n2c(=O)n(-c3ccc(C(F)(F)F)cc3)c3cccnc32)C1 [Example 63, (S)-1-Methyl-2-((3-(2-oxo-1-(4-(trifluoromethyl)phenyl)-1,2-dihydro-3H-imidazo[4,5-b]pyridin-3-yl)pyrrolidin-1-yl)methyl)-1H-imidazole-5-carboxylic acid]"
2,7890,"Cn1c(C(=O)O)cnc1CN1CC[C@H](n2c(=O)n(-c3ccc(C#N)cc3)c3cccnc32)C1 [Example 64, (S)-2-((3-(1-(4-Cyanophenyl)-2-oxo-1,2-dihydro-3H-imidazo[4,5-b]pyridin-3-yl)pyrrolidin-1-yl)methyl)-1-methyl-1H-imidazole-5-carboxylic acid]"
3,2400,"Cn1c(C(=O)O)cnc1CN1CC[C@H](n2c(=O)n(-c3ccc([N+](=O)[O-])cc3)c3cccnc32)C1 [Example 65, (S)-1-Methyl-2-((3-(1-(4-nitrophenyl)-2-oxo-1,2-dihydro-3H-imidazo[4,5-b]pyridin-3-yl)pyrrolidin-1-yl)methyl)-1H-imidazole-5-carboxylic acid]"
4,3000,"Cn1c(C(=O)O)cnc1CN1CC[C@H](n2c(=O)n(-c3ccc(O)cc3)c3cccnc32)C1 [Example 73, (S)-2-((3-(1-(4-Hydroxyphenyl)-2-oxo-1,2-dihydro-3H-imidazo[4,5-b]pyridin-3-yl)pyrrolidin-1-yl)methyl)-1-methyl-1H-imidazole-5-carboxylic acid]"

# Reference: patent US12077531B2, “Imidazopyridinone compound” (KISSEI PHARMACEUTICAL CO., LTD., priority 2018, dated 2024)
